Assay results published in patent US12134611B2, “Compounds and compositions for treating conditions associated with NLRP activity” (Novartis AG, priority 2018, dated 2024).

What follows are compounds tested against T1, hNLRP3 (Homo sapiens, UniProt Q96P20) (assay: IL-1β production in PMA-differentiated THP-1 cells stimulated with gramicidin (hTHP-1 assay)). Details: read-out: NLRP3 Antagonist, hNLRP3 (THP-1, IL-1b) Normalized: GeoMean IC50.
T1 construct: THP-1 cells were purchased from the American Type Culture Collection; host or cells: THP-1 cells, PMA-differentiated, stimulated with gramicidin
T1 sequence (Q96P20 whole entry): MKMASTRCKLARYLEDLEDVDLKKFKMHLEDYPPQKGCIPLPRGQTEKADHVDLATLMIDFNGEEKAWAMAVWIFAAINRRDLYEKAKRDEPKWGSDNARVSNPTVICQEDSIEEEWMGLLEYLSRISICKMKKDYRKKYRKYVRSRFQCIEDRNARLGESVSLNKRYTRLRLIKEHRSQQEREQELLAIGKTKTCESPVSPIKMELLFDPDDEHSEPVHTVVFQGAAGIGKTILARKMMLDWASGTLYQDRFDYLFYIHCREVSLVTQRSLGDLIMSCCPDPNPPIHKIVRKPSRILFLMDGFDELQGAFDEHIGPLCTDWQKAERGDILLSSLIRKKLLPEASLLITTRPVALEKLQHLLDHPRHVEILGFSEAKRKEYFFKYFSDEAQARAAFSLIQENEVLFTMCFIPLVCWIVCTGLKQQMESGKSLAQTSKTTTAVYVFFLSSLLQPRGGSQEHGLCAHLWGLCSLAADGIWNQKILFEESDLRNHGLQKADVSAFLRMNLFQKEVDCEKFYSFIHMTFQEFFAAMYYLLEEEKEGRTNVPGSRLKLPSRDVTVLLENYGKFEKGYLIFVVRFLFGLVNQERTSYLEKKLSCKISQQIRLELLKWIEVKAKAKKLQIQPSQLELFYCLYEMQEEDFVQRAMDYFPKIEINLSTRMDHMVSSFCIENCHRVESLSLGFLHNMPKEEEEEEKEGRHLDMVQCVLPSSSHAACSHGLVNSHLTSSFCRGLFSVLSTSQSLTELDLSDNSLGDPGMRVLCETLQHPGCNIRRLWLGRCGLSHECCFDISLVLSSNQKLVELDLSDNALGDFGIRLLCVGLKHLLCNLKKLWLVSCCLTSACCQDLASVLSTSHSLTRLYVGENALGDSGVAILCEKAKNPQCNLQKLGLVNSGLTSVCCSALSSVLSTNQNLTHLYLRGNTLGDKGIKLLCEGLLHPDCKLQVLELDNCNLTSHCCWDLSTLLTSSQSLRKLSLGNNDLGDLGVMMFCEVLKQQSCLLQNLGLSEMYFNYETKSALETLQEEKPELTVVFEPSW
Type: cell-based

Row | SMILES | IC50
1 | CC(C)(O)c1cccc(C2CC(=O)NS2(=O)=NC(=O)Nc2c3c(cc4c2CCC4)CCC3)c1 (stereo not shown) [Compound 253, 1-(1,2,3,5,6,7-hexahydro-s-indacen-4-yl)-3-(5-(3-(2-hydroxypropan-2-yl)phenyl)-1-oxido-3-oxo-1l6-isothiazolidin-1-ylidene)urea] | 0.2 to 1 µM
2 | O=C(N=S1(=O)CC(Cc2ccccc2)C(=O)N1)Nc1c2c(cc3c1CCC3)CCC2 (single isomer, unassigned) [Compound 249a, 1-((1R,4S or 4R)-4-benzyl-1-oxido-3-oxo-1l6-isothiazolidin-1-ylidene)-3-(1,2,3,5,6,7-hexahydro-s-indacen-4-yl)urea] | 0.2 to 1 µM
3 | CN(C)Cc1ccc2c(c1)S(=O)(=NC(=O)Nc1c3c(cc4c1CCC4)CCC3)NC2 (single isomer, unassigned) [Compound 133a, (R or S)-1-(6-((dimethylamino)methyl)-1-oxido-2,3-dihydro-1l4-benzo[d]isothiazol-1-ylidene)-3-(1,2,3,5,6,7-hexahydro-s-indacen-4-yl)urea] | 5 to 30 µM
4 | O=C(N=S1(=O)CC2(CN1)COC2)Nc1c2c(cc3c1CCC3)CCC2 (single isomer, unassigned) [Compound 139a, (S or R)-1-(1,2,3,5,6,7-hexahydro-s-indacen-4-yl)-3-(6-oxido-2-oxa-6l6-thia-7-azaspiro[3.4]octan-6-ylidene)urea] | > 30 µM
5 | CC(C)(O)c1ccc2c(c1)S(=O)(=NC(=O)Nc1c3c(cc4c1CCC4)CCC3)NC2 (stereo not shown) [Compound 126, 1-(1,2,3,5,6,7-hexahydro-s-indacen-4-yl)-3-[6-(2-hydroxypropan-2-yl)-1-oxo-2,3-dihydro-1-^λ-6,2-benzothiazol-1-ylidene]urea] | > 30 µM
6 | CC(C)(O)c1ccc2c(c1)C(=O)NS2(=O)=NC(=O)Nc1c2c(cc3c1CCC3)CCC2 (single isomer, unassigned) [Compound 121a, (R or S)-1-(1,2,3,5,6,7-hexahydro-s-indacen-4-yl)-3-(5-(2-hydroxypropan-2-yl)-1-oxido-3-oxo-2,3-dihydro-1l4-benzo[d]isothiazol-1-ylidene)urea] | 0.2 to 1 µM
7 | O=C(N=S1(=O)NC(=O)c2ccc(-n3cccn3)cc21)Nc1c2c(cc3c1CCC3)CCC2 (single isomer, unassigned) [Compound 211a, (S or R)-1-(1,2,3,5,6,7-hexahydro-s-indacen-4-yl)-3-(1-oxido-3-oxo-6-(1H-pyrazol-1-yl)-2,3-dihyclro-1l4-benzo[d]isothiazol-1-ylidene)urea] | 5 to 30 µM
8 | CC1(C)CS(=O)(=NC(=O)Nc2c3c(cc4c2CCC4)CCC3)NC1=O (single isomer, unassigned) [Compound 102b, (R or S)-1-(4,4-dimethyl-1-oxido-3-oxo-1l6-isothiazolidin-1-ylidene)-3-(1,2,3,5,6,7-hexahydro-s-indacen-4-yl)urea] | 5 to 30 µM
9 | CC(C)(O)c1ccc2c(c1)S(=O)(=NC(=O)Cc1c3c(cc4c1CCC4)CCC3)NC2=O (single isomer, unassigned) [Compound 115a, (S or R)-2-(1,2,3,5,6,7-hexahydro-s-indacen-4-yl)-N-(6-(2-hydroxypropan-2-yl)-1-oxido-3-oxo-2,3-dihydro-1l4-benzo[d]isothiazol-1-ylidene)acetamide] | 5 to 30 µM
10 | O=C(Nc1c2c(cc3c1CCC3)CCC2)NS1(=O)=NC(=O)c2ccc(Cl)cc21 (stereo not shown) [Compound 128, 3-(6-chloro-1,3-dioxo-2,3-dihydro-1-^λ-6,2-benzothiazol-1-ylidene)-1-(1,2,3,5,6,7-hexahydro-s-indacen-4-yl)urea] | 5 to 30 µM
11 | COCc1ccc2c(c1)S(=O)(=NC(=O)Nc1c3c(cc4c1CCC4)CCC3)NC2=O (stereo not shown) [Compound 217, 1-(1,2,3,5,6,7-hexahydro-s-indacen-4-yl)-3-(6-(methoxymethyl)-1-oxido-3-oxo-2,3-dihydro-1l4-benzo[d]isothiazol-1-ylidene)urea] | 0.2 to 1 µM
12 | CN1Cc2ccccc2S1(=O)=NC(=O)Nc1c2c(cc3c1CCC3)CCC2 (single isomer, unassigned) [Compound 107a] | > 30 µM
13 | C=C(C)c1ccc2c(c1)S(=O)(=NC(=O)Nc1c3c(cc4c1CCC4)CCC3)NC2=O (stereo not shown) [Compound 207, 1-(1,2,3,5,6,7-hexahydro-s-indacen-4-yl)-3-(1-oxido-3-oxo-6-(prop-1-en-2-yl)-2,3-dihydro-1l4-benzo[d]isothiazol-1-ylidene)urea] | 5 to 30 µM
